# Reference: US11447742B2, “Compositions and methods for activation and overexpression of secondary metabolites in microorganisms” (Prospective Research, Inc., priority 2016, dated 2022)
# “Also recorded” adds a separate entry of the source.
# Experiments:
# S. glaucescens = assay: Principal component analysis of secondary metabolites of S. glaucescens small scale fermentations with GBLs; type: cell-based; conditions: for induction of secondary metabolite production: S. glaucescens fermented in SMM medium, LC-MS data, versus untreated control (FIG. 17)
# Method: S. glaucescens cells were grown in 3 mL cultures under 96 different conditions of medium, GBL choice, and GBL concentration. Each GBL solution was added to a tube in each of the following concentrations: 0.2 μM, 0.8 μM, 4 μM, 20 μM, and 100 μM. Media were a minimal medium SMM or a yeast enriched complex medium R5 (also called R2YE). The GBL indicated in FIG. 17 as PR001 and PR002 are shown in FIG. 16, and have the chemical formulae, respectively: 3-(1-hydroxyethyl)-4-(hydroxymethyl)dihydrofuran-2(3H)-one; and, 3-(1-hydroxyheptyl)-4-(hydroxymethyl)dihydrofuran-2(3H)-one.
# Fermentations were incubated in 24-well blocks (CR 424, Enzyscreen B.V., Netherlands) with lids (1221a), and were shaken at 200 rpm for 5 days at 28° C. in an Infors HT incubator (Infors AG, Switzerland). For analysis, a C18 SPE-IT tip (57234-U from Sigma-Aldrich) was added to each fermentation which were further shaken at 400 rpm for one hour. Tips were removed and rinsed in deionized water, and were analyzed directly or stored for analysis. Analysis was collected at ionsense, Inc. (Saugus, Mass.) vaporized with a DART source at 400 C and 1 mm/s, and mass spectral data collected in a Thermo LTQ. Analysis used Progenesis QI from Nonlinear Dynamics (Waters).
# Principal component analysis data of secondary metabolites induced by the GBLs in comparison to control absent GBL are shown in FIG. 17. […] Accordingly, 100 μM GBL was used in large scale fermentions.
# S. coelicolor [1] = assay: Induction of pigmented antibiotic (actinorhodin) production in S. coelicolor plate cultures spotted with GBLs; type: cell-based, Streptomyces coelicolor; conditions: for antibiotic production (dark spot): S. coelicolor SMMS plates spotted with 1-100 μg racemic mixture of I-VII and VB-D at inoculation, observed after 42 hours; for dose dependence of antibiotic production (diameter of dark spot): amount of GBL mixture I-VII and VB-D 1-100 μg; for production of pigmented antibiotics (actinorhodin): S. coelicolor on SMMS plates, 2 μL spot with 16.5-165 μg racemic GBLs X and XI at inoculation, versus control plates without GBL
# Method: The formulas I-VII in FIG. 10 illustrate the structures of the enantiomers in the mixture of GBLs tested for ability to elicit antibiotic production, the results of which are shown in the plates in FIG. 9. […] The mixture of GBLs was added to a pure culture of non-cognate microorganism S. coelicolor. Streptomycete strains were cultured in complex medium R5 or in minimal medium MMS. See Kieser, T. et al., Practical Streptomyces Genetics, John Innes Institute, 2000.
# Spore stock of S. coelicolor was used to inoculate SMMS agar (solid SMM medium) and the spore suspension on the surfaces of the plates was allowed to dry. The GBL amounts were added at the time of inoculation.
# The two plates in the top of the photograph of FIG. 9 are controls cultures of S. coelicolor. The control plate on the left is a negative control in which no GBL nor vehicle was added. The control plate on the right was contacted with the vehicle only, which was a mixture of methanol and water.
# A racemic mixture of GBLs containing the non-naturally occurring compounds 1-VII and virginiae butenolide-D (VB-D) was synthesized, and an amount of about 500 μg was dissolved in 100 μL of vehicle to yield a 5 mg/ml concentration solution. The plates of the second row from left to right were spotted with 20 μL (100 μg), 10 μL (50 μg), 5 μL (25 μg), and […] of the 10 mg/ml concentration solution, respectively. […] The fifth plate of the third row was spotted with 2 μL (1 μg) of a 1:10 dilution of the 10 mg/ml concentration solution.
# FIG. 12 is a photograph of SMMS (supplemented minimal media solid) plates inoculated with a spore stock of S. coelicolor streaked to cover the surface of the medium in the plate. At the time of inoculation, 2 μL of a racemic solution containing each amount of a dilution of the racemic GBLs having formulas X and XI were deposited in the center of a plate. Plate 1a was spotted with 2 μL of a solution containing 16.5 μg of GBLs X and XI. Plates 2a and 2b were spotted with 2 μL of a solution containing 33 μg of GBLs X and XI. Plate 3a was spotted with a solution containing 49.5 μg of GBLs X and XI. Plates 4a and 4b were spotted with a solution containing 66 μg of GBLs X and XI. Plates 5a, 6a, 7a, were spotted with solutions containing 99 μg, 132 μg, and 165 μg of GBLs X and XI, respectively. Racemic mixture GBLs were present in equal molar amounts. […] No pigment production was observed on the control plates shown in FIG. 7 not contacted with GBLs.
# S. coelicolor [2] = assay: Large scale S. coelicolor fermentation with GBL, extract fractionation and LC-MS identification of induced secondary metabolites; type: cell-based, Streptomyces coelicolor; conditions: S. coelicolor 300 mL cultures in SMM, 100 μM GBL; for Desferrioxamine B production / Desferrioxamine E production / streptorubin B production / undecylprodigiosin production: 5 days; for Desferrioxamine B production: fraction 28, peak at 1.81, versus untreated control; for Desferrioxamine E production: fraction 28, peak at 2.09, versus untreated control; for streptorubin B production: fraction 41, peak at 3.6, versus untreated control; for undecylprodigiosin production: fraction 41, peak at 3.8, versus untreated control
# Method: Yields of both known and unknown bioactive compounds regulated by the presence of signaling hormones are improved by contacting producing cells with an appropriate GBL. Secondary metabolites were isolated from cultures of cells. Triplicate 300 mL cultures of S. coelicolor in SMM, was treated with the synthetic racemic mixture of VB-D and seven enantiomers of the non-cognate GBL shown in FIG. 10, at a total concentration of 100 μM, and an identical culture was grown without GBL. Cells were grown for five days at 29 C shaking at 220 rpm. Triplicates were pooled with GBL-treated and control cultures pooled separately.
# A slurry of absorbent resins HP-20, XAD-16, XAD-7 and XAD-4 was added (2-4% weight/volume) and shaking was continued overnight. The resin and cell mass were removed by filtration and were washed three times with 200 mL deionized water. Resin and cell mass were extracted three times with 100-300 mL methanol to elute secondary metabolites from the resin. This extract was concentrated by rotary evaporation to remove extraction solvent.
# The crude extract was dissolved in 1-3 mL of dimethylsulfoxide (DMSO) and was injected into a reveleris C18 reverse phase column on a Gilson High-Pressure Liquid Chromatography system. A flow rate of 15 ml/min was run for 40 minutes using mobile phases of methanol with 0.1% formic acid, and water with 0.1% formic acid. Forty-eight fractions were collected from a twenty minutes gradient of solvent from 15% methanol to 95% methanol, and were analyzed for antibacterial content on soft agar lawns of each of a Gram negative indicator strain, Escherichia coli, and a Gram positive indicator strain, Bacillus subtilis.
# Further, 10 μL fraction volumes of each fraction were injected into a Waters Xevo G2-S Q-TOF LCMS system for further analytical separation and mass identification.
# Fraction 28 of each of the GBL and the control extracts were each analyzed by LC-MS-TOF.
# Fraction 41 of each of the GBL and the control extracts were each analyzed by LC-MS-TOF. […] Fraction 41 was subjected to UV chromatogram of diode array HPLC detector analysis. Again at prominent peak at 3.83 was observed. This material was determined to be undecylprodigiosin by mass chromatogram shown in FIG. 25, which has an observed mass of 393.27 and a calculated mass of 394.25.
# [3] = listed as synthetic non-cognate GBL
compound,measurement,setting,value
CC(O)C1C(=O)OCC1CO (stereo not drawn) [3-(1-hydroxyethyl)-4-(hydroxymethyl)dihydrofuran-2(3H)-one],distinction from control secondary metabolites produced absent GBL (principal component analysis),"S. glaucescens; S. glaucescens 3 mL cultures, 5 days, 0.2-100 μM GBL",greatest distinction from control
same,induction of secondary metabolite production,S. glaucescens,induction of secondary metabolite production
same,dose dependence of induction of secondary metabolites,"S. glaucescens; S. glaucescens, GBL 0.2, 0.8, 4, 20, 100 μM",in a dose-dependent manner
same,concentration of maximal distinction from control,"S. glaucescens; S. glaucescens, principal component analysis",100 µM
"CCCCCCC(O)C1C(=O)OCC1CO (single isomer, unassigned) [3-(1-hydroxyheptyl)-4-(hydroxymethyl)dihydrofuran-2(3H)-one]",antibiotic production (dark spot),S. coelicolor [1]; listed as VB-D and seven enantiomer GBLs thereof having the formulas I-VII,"production of the blue antibiotic, actinorhodin, and red prodiginies"
same,antibiotic production (dark spot),S. coelicolor [1]; listed as compounds 1-VII and virginiae butenolide-D (VB-D),produced antibiotic
same,antibiotic production (dark spot),S. coelicolor [1]; listed as mixture of GBLs,production of an antibacterial activity was elicited
same,antibiotic production,"S. coelicolor [1]; S. coelicolor SMMS plates with racemic mixture of I-VII and VB-D, after 24 hours",No antibiotic production was observed
same,dose dependence of antibiotic production (diameter of dark spot),"S. coelicolor [1]; S. coelicolor plates, listed as VB-D and seven enantiomer GBLs thereof having the formulas I-VII",monotonic dose-dependent response
same,dose dependence of antibiotic production (diameter of dark spot),"S. coelicolor [1]; S. coelicolor plates, listed as compounds 1-VII and virginiae butenolide-D (VB-D)",dose-dependent monotonically
same,induction of secondary metabolite production,S. glaucescens,induction of secondary metabolite production
same,Desferrioxamine B production,S. coelicolor [2],induced
same,Desferrioxamine B production,S. coelicolor [2]; [3],substantially enhanced or even induced
same,Desferrioxamine E production,S. coelicolor [2],induced
same,Desferrioxamine E production,S. coelicolor [2]; [3],substantially enhanced or even induced
same,streptorubin B production,S. coelicolor [2],induced
same,streptorubin B production,S. coelicolor [2]; [3],substantially enhanced or even induced
same,undecylprodigiosin production,S. coelicolor [2],induced
same,undecylprodigiosin production,S. coelicolor [2]; [3],substantially enhanced or even induced
same,production of unknown compound (peak at 1.84),"S. coelicolor [2]; fraction 28, versus untreated control",induced
CCCCCCC(=O)C1C(=O)OCC1CO (stereo not drawn) [GBLs X and XI],time of induction of production of the pigmented antibiotics,S. coelicolor [1]; S. coelicolor SMMS plates contacted with racemic GBLs X and XI,early induction
same,production of pigmented antibiotics (actinorhodin),S. coelicolor [1],pigmented antibiotic is produced only in response to treatment; also recorded: increased production of pigmented antibiotics
same,production of pigmented antibiotics (actinorhodin),S. coelicolor [1]; listed as X and XI,"production of the purple antibiotic, actinorhodin"
same,dose dependence of antibiotic production,"S. coelicolor [1]; S. coelicolor plates, increasing amount of GBLs X and XI (FIG. 3)",dose-dependent increase in antibiotic production
